The values below come from US20110230421A1, “FUSION PROTEINS OF APOPTIN-PROTEIN TR[…] OF CARBOXYL-TERMINUS OF EC-SOD” (priority 2008, published 2011).

Read-outs that look alike come from different tables or passages of the source.

In assay [1] the test system is Lewis lung carcinoma. Format: in vivo, mouse. The note with it: i.p. daily for 7-8 days, cyclophosphamide 20, Poly Arg-Apoptin 40, Apoptin-EC-SOD-PTD 10 mg/kgBW/day; for ratio of tumor inhibition: versus blank group mean tumor weight. On the procedure:
Four groups including a blank control, a positive control and a recombinant Apoptin-EC-SOD-PTD test group and a recombinant Poly Arg-Apoptin group were set for the experiment, and 8 animals were tested for each group. After inoculation of Lewis lung carcinoma cells, the blank control group was injected with saline water. Whereas, the positive control group was injected with cyclophosphamide solution (20 mg/kgBW/day). The two test groups were injected with the recombinant Apoptin-EC-SOD-PTD (10 mg/kgBW/day) which was purified, dialysed and sterile filtrated and recombinant Poly Arg-Apoptin (40 mg/kgBW/day), respectively.
1. Inoculation of carcinoma cell line: Six weeks old C57BU6 male mice with a weight of about 20 g were inoculated by armpit with 0.2 ml of Lewis lung carcinoma single cell suspension. After feeding for 3-4 days, tumor growth in the armpits of the mice was observed. Drug administration test would be initiated when the tumor grew to a size of several millimeters.
2. Administration: Drugs were administered by intraperitoneal injection, and the administrations were continued for 7-8 days. The mouse was weighed before daily administration.
3. Detecting ratio of tumor inhibition: After the drug administrations were stop for 2 days, the mice were sacrificed by breaking their necks. The tumor tissue was stripped from the body, weighted and calculated the ratio of tumor inhibition.
Ratio of tumor inhibition=(mean tumor weight of the blank group—mean tumor weight of the test group)/mean tumor weight of the blank group×100%.

Assay [2] has as its system HeLa cells. Put plainly: MTT survival of HeLa cells cultured in vitro, 24 h. Format: cell-based. The note with it: 100 μg/ml. As for the experimental part: 1. The HeLa cells were cultured on the 96-well cell culture plate at 37° C. until the cell density reached to about 60%. Imidazole was removed from the recombinant Apoptin-EC-SOD-PTD sample isolated and purified after expressing by repeated dialysis. After sterile filtration, the protein was diluted by adding different volume of DMEM cell culture media. From the highest concentration of protein, the concentration was reduced by half dilution gradually until zero. And the solution without protein was used as the negative control; for each protein concentration group were selected 3-4 wells for parallel control. Meanwhile, the recombinant Apoptin protein isolated and purified from the prokaryotic expression system using the similar method was used as the control and conducted the same experimental operation. The two sets of samples were cultured for 24 h, drew culture media out and added the DMEM (100 μl) containing the 5 μg/ml of MTT, and then incubated for 4 hours at 37° C., drew the culture media out and added DMSO (100 μl) to dissolve the purple crystals, incubated for 10 min at 37° C. and measured its absorbance at 490 nm by a microplate reader. […]
2. Survival ratios of HeLa cells treated with different sample concentration were detected by MTT method.

Regarding `O=P1(N(CCCl)CCCl)NCCCO1` (stereo not shown) [cyclophosphamide], the “weight of the tumor tissue X ± SD” value in assay [1] (tumor stripped 2 days after last dose) is 1.21 ± 0.119. The “ratio of tumor inhibition” value in assay [1] and in assay [1] (listed as positive control) was 47.4% in each case.

B1: recombinant Apoptin: recombinant Apoptin protein isolated and purified from the prokaryotic expression system, used as the control (protein)
chain: MNALQEDTPPGPSTVFRPPTSSRPLETPHCREIRIGIAGITITLSLCGCANARAPTLRSATADNSESTGFKNVPDLRTDQPKPPSKKRSCDPSEYRVSELKESLITTTPSRPRTAKRRIRL
modifications: Chicken anemia virus
notes: recombinant Apoptin protein isolated and purified from the prokaryotic expression system, used as the control
On to B1, for which the “effect on the cell growth of HeLa” value in assay [2] is given as “not obvious”.
